Measured values from patent US10570213B2, “Methods of treating cancers using PD-1 axis binding antagonists and taxanes” (Genentech, Inc., priority 2013, dated 2020).

Tested on: MC38 colorectal tumor
Experiment: syngeneic MC38 colorectal tumor model in C57BL/6 mice
Format: in vivo
Settings: FIG. 1 experiment
Description: Mice with established subcutaneous MC38 tumors of approximately 100-200 mm^3 were treated with single-dose carboplatin at 80 mg/kg by intraperitoneal (IP) injection plus paclitaxel at 10 mg/kg injected intravenously (IV), and anti-gp120 antibody or anti-PD-L1 (clone 25A1 mIgG2a.DANA) at 10 mg/kg dosed 3 times a week for 3 weeks. N=10 mice/group.
Mice with established subcutaneous MC38 tumors of approximately 100-200 mm^3 were treated with a single dose of either saline or dexamethasone at 4 mg/kg IV and 12 hours later, treated with either control anti-gp120 antibody or anti-PD-L1 (clone 25A1.mIgG2a.DANA) at 10 mg/kg IP 3 times a week for 3 weeks. N=10 mice/group.
Mice with established subcutaneous MC38 tumors of approximately 300 mm^3 were treated with anti-gp120 control antibody or anti-PD-L1 antibody (clone YW243.55.570 mIgG2a.DANA) administered by IP injection at 10 mg/kg 3 times a week for 3 weeks, plus saline or carboplatin at 75 mg/kg IP weekly for 3 weeks plus ABRAXANE® at 15 mg/kg iv weekly for 3 weeks, as indicated. N=8 mice/group.
MC38 colorectal tumor cell lines were maintained at Genentech. 7-10 week old C57BL/6 female mice (Charles River Laboratories; Hollister, Calif.) were inoculated subcutaneously in the right unilateral flank with 0.1 million MC38 cells. […]

Q: For paclitaxel+carboplatin, which “mice with partial response (in words)” value (N=10 mice/group) is on record?
A: no mice

Q: And the “time to progression (TTP), 5× the initial tumor volume” value (tumors approximately 100-200 mm^3 at start, anti-PD-L1 clone 25A1)?
A: 15.5 days
